Half-life data for 90 compounds are collected here from PubChem BioAssay AID1508591.

Molecules are shown by their SMILES.

The conditions of the data set: rat; liver microsomes; pH 7.4; 15.0 min; 1.0 µM.

Usually half-life stands for the time in which the quantity being followed falls by half. As for `O=C(c1nc(-c2cccnc2)c2ccccn12)N1CCOCC1`, the half-life was over 30 min.
`CCCCN1CCC[C@H]1CNC(=O)c1cc(C#N)c2ccccc2c1OC` came in with a half-life of 4.23 min.
`O=C1CCCC2=C1C(c1ccncc1Cl)N=C(Nc1nc3ccccc3o1)N2` (stereo not given) came in with a half-life of 6.6 min.
Consider `Cc1ccc(S(=O)(=O)Nc2cnccc2C(=O)Nc2ccc(S(=O)(=O)Nc3nccs3)cc2)cc1`, for which the half-life is 5.3 min.
As for `Cc1ccc(S(=O)(=O)Nc2cnccc2C(=O)Nc2nc(-c3cccc(Cl)c3)cs2)cc1`, the figure is over 30 min.
The value for `CC(=O)c1c(C)[nH]c(C(=O)Nc2cccc(S(=O)(=O)Nc3ccc(Br)cc3)c2)c1C` was 18 min.
`COc1ccccc1C(=O)Nc1nc2nc(C)cc(=O)n2[nH]1` gave a half-life of 26 min.
`Cc1ccc(S(=O)(=O)Nc2cc3c(cc2C(=O)Nc2nc(-c4ccccc4)cs2)OCO3)cc1` registered a half-life of 6.7 min.
The compound `Cc1ccc(S(=O)(=O)Nc2cnccc2C(=O)NCCc2ccccc2)cc1` had a half-life of 4.9 min. This half-life and that of the compound before are within 1.5-fold of each other.
In turn, `COc1ccc(CN2CCN(C(=O)c3cc4c(s3)CCC4)CC2)cc1` gave a half-life of 1.9 min.
`Cc1c(Cl)cccc1NC(=O)CNS(=O)(=O)c1cccs1` showed a half-life of 5.47 min.
As to `COc1ccc(-c2csc(N3CCC(C(N)=O)CC3)n2)cc1`, the half-life was found to be 4.68 min.
The value for `CC(C)c1ccc(CC(=O)N2CCCc3ncc(C(=O)Nc4cccnc4)cc32)cc1` was 5.67 min; that for `COC(=O)c1ccc2c(c1)nc1n2[C@@H](CNC(C)=O)COC1` was over 30 min; that for `CCOc1ccc(CCNC(=O)c2cc3ccccc3n2Cc2ccc(Cl)c(F)c2)cc1OCC` was 1.7 min.
In turn, `COc1ccc(-c2nc3c(c(SCC(=O)Nc4ccc(C(=O)O)cc4)n2)Cc2ccccc2O3)cc1` gave a half-life of over 30 min.
The value for `CC(C)Oc1ccc(-c2csc(N3CCC(C(N)=O)CC3)n2)cc1` was over 30 min.
In turn, `COc1ccccc1CNc1ccc(S(=O)(=O)Nc2nccs2)cc1` showed a half-life of 2.8 min.
The value for `COc1ccc(-c2ccc3c(N4CCOC[C@@H]4C)nc(N4CCOC[C@@H]4C)nc3n2)cc1CO` was over 30 min; that for `CCOc1ccccc1N(CC(=O)N1CCOCC1)S(=O)(=O)c1ccc(SC)cc1` was 1.45 min.
Regarding `CCCC1=Nc2cc(C(=O)NC3CCCCC3)ccc2Sc2ccc(C)cc21`, the half-life is 1.48 min.
`O=C(O)c1cccc(-n2cccc2/C=C2/NC(=O)N(c3cccc(Cl)c3)C2=O)c1` gave a half-life of over 30 min.
In turn, `O=c1[nH]c(C2CCN(S(=O)(=O)c3ccc4c(c3)OCCO4)CC2)nc2c1nnn2Cc1c(F)cccc1Cl` displayed a half-life of 1.4 min.
`O=C(O)c1cccc(-c2cnc3ccccc3c2)c1`: the half-life was over 30 min.
The value for `C[C@@H]1CN(CC(=O)N2CC(C)(C)c3ncc(Cc4ccc(F)cc4)cc32)[C@@H](CN2CCOC[C@H]2C)CN1` was 7.57 min.
Take `NC(=O)C1CCN(c2nc(-c3cccc(Br)c3)cs2)CC1`: the half-life stood at 1.77 min.
Compound `Cc1ccnc(NC(=S)N2CCCC(Nc3cccc(C(F)(F)F)c3)C2)c1` (stereo not given) came in with a half-life of 11 min. This half-life is about 6.2-fold higher than that of the compound before.
`O=S(=O)(Nc1nccs1)c1ccc(Nc2nc(-c3ccc(F)cc3)cs2)cc1` gave a half-life of over 30 min.
In turn, `COc1ccc(Cn2c(CCC(=O)Nc3cc(C)cc(C)c3)nc3cccnc32)cc1` gave a half-life of 1.47 min.
The value for `Nc1ccc(CNc2ccc([S+](=O)([O-])Nc3nccs3)cc2)c(O)c1` was over 30 min; that for `O=C(Nc1nnc(-c2ccco2)o1)c1ccc(Cl)cc1` was 10.8 min.
Regarding `O=C(c1ccco1)N1CCN(c2nc(-c3ccc(Br)cc3)cs2)CC1`, the half-life is over 30 min.
As for `Cn1cc(C2=C(c3cn(CCCSC(=N)N)c4ccccc34)C(=O)NC2=O)c2ccccc21`, the figure is 4.4 min; as for `CC1CCc2ccc(F)cc2N1S(=O)(=O)c1cccs1` (stereo not given), 2.7 min; as for `Cc1nc2sccn2c(=O)c1S(=O)(=O)Nc1ccc(N2CCN(C)CC2)cc1`, 17.8 min.
For `O=[S+]([O-])(Nc1cccc2ccccc12)c1ccc(NCc2ccc(Cl)cc2O)cc1`, the half-life is 5.4 min.
`CC(C)(N)CNC(=O)CC1CCC2(CC1)OOC1(O2)C2CC3CC(C2)CC1C3` (stereo not given) displayed a half-life of over 30 min.
In the case of `COc1cccc(N2CCN(c3ncc4c(n3)CCN(Cc3ccc(Br)cc3)C4)CC2)c1`, the half-life is 18.2 min.
In turn, `COc1ccnc(NC(=S)N2CCN(c3ccc(Cl)c(Cl)c3)CC2)c1` had a half-life of 20 min.
In turn, `COc1cc2c(c(OC)c1OC)-c1ccc(SC)c(=O)cc1C(N)CC2` (stereo not given) registered a half-life of 9.88 min. Against the preceding compound, the half-life is about 2-fold lower.
`NC(=O)C1CCN(c2nc(-c3cccc(N)c3)cs2)CC1`: the half-life is over 30 min.
With `O=C1Nc2ccccc2/C1=C\c1ccc([N+](=O)[O-])cc1`, the half-life is 4.92 min.
On to `COc1cc2c(cc1-c1c(C)noc1C)ncc1[nH]c(=O)n([C@H](C)c3ccccn3)c12`, for which the half-life was over 30 min.
`O=C(N[C@@H](Cc1ccccc1)C(=O)CCl)OCc1ccccc1` had a half-life of 14 min.
As for `O=C(c1ccc2c(c1)ncn2-c1cccc(C(F)(F)F)c1)N1CCCCC1`, the figure is 4.4 min; as for `CCOC(=O)C1CCN(C(=O)Nc2ccc3c(c2)nc(C)n3C)CC1`, 1 min.
As for `O=S(=O)(Nc1nccs1)c1ccc(NCc2cccc3cc[nH]c23)cc1`, the figure is over 30 min; as for `Cc1nc(-c2ccco2)cc([C@H]2CN3CC[C@H]2C[C@@H]3CNC(=O)NC2CCCCC2)n1`, 29.6 min; as for `CCOC(=O)c1nnc(N[S+](=O)([O-])c2ccc(NC(=O)Cc3ccc(Cl)c(Cl)c3)cc2)s1`, 6 min.
The value for `CC(=O)c1ccc(N2CCN(S(=O)(=O)c3cc4c(cc3Cl)NC(=O)C4)CC2)cc1` was 28 min.
Take `COc1ccc(CCNc2ncnc3onc(C)c23)c(OC)c1`: the half-life came out at 2.23 min.
For the compound `Cc1cnc(SCc2ccccn2)nc1C1CCCN(C(=O)c2scc3c2CCCC3)C1` (stereo not given), the half-life stood at 1.01 min. Compared with the last compound, the half-life is about 2.2-fold lower.
Compound `Cn1cc(S(=O)(=O)N2CCOCC2)cc1C(=O)Nc1ccc(Cl)c(C(F)(F)F)c1` gave a half-life of over 30 min.
`Cc1c(-c2nsc(NC(=O)c3cccc(Cl)c3)n2)nnn1-c1ccccc1C(F)(F)F` returned a half-life of over 30 min.
As for `CC(C)c1ccccc1-c1nc(NCc2ccc(-c3cccnc3)cc2)c2ccccc2n1`, the half-life stood at 9.21 min.
For `CC(C)C[C@H]1C(=O)N2CCC[C@H]2[C@]2(O)O[C@](NC(=O)[C@@H]3C=C4c5cccc6[nH]c(Br)c(c56)C[C@H]4N(C)C3)(C(C)C)C(=O)N12`, the half-life turned out to be 1.59 min.
`Cn1ccc2c(C(=O)NCc3cccnc3)nc(-c3ccccc3C#N)cc21` registered a half-life of 5.52 min.
For the compound `CCN(CCO)CCCOc1ccc2c(Nc3cc(CC(=O)Nc4cccc(F)c4)[nH]n3)ncnc2c1`, the half-life was 1.88 min.
Compound `Cc1ccc(S(=O)(=O)Nc2cnccc2C(=O)Nc2nc(-c3ccc(F)cc3)cs2)cc1` showed a half-life of over 30 min.
On to `Nc1ncnc2c1ncn2[C@H]1O[C@@H](CO)[C@@H](O)[C@H]1N`, for which the half-life is over 30 min.
The value for `Cc1noc(C)c1-c1ccc2ncnc(N3CCC(C(=O)O)CC3)c2c1` was over 30 min; that for `O=C(Nc1ccc(S(=O)(=O)Nc2nccs2)cc1)c1cccc2ccccc12` was over 30 min; that for `O=C1Nc2ccccc2/C1=C\c1cc(F)c(O)c(F)c1` was 23 min.
In turn, `COc1cccc(-c2csc(N3CCC(C(N)=O)CC3)n2)c1` displayed a half-life of 1.33 min.
Compound `COC(=O)c1ccc(NC(=O)c2nc3ccccc3n(C)c2=O)cc1` had a half-life of 2.98 min.
In turn, `O=C(Nc1nc(-c2ccccc2)cs1)c1ccccc1-n1cnnn1` registered a half-life of over 30 min.
Regarding `COc1ccnc(NC(=S)N2CCN(c3ncc(C(F)(F)F)cc3Cl)CC2)c1`, the half-life was over 30 min.
`C=Cc1ccc(Cn2c(C(=O)O)c(CNC3CCCCC3)c3ccc(OC)cc32)cc1`: the half-life was 7.15 min.
The value for `Cc1cc(C)nc(NC(=S)N2CCN(c3cccc([N+](=O)[O-])c3)CC2)c1` was 17 min; that for `Cc1cnc(CNc2nc(-c3cccc(NS(C)(=O)=O)c3)nc3ccccc23)cn1` was 21 min.
In the case of `CCc1[nH]c2ccc(CNC(=O)Cc3cnc4c(C)cccn34)cc2c1C`, the half-life turned out to be 2.4 min.
As to `CCOC(=O)C1CCN(C(=O)C(C)(C)NC(=O)Nc2ccc(-c3ccccc3)cc2)CC1`, the half-life was 1.4 min.
`OCc1ccc(-c2cc3c(ccn3Cc3cccnc3)c(C3=CCOCC3)n2)cc1` yielded a half-life of 4.89 min.
In turn, `CNC(=O)C1CCN(C(=O)c2ccc(-c3ncc4cnc(-c5ccccc5)cn34)cc2)CC1` gave a half-life of over 30 min.
The value for `CCc1ccc(-n2c(=O)c3cccnc3n2CC(=O)Nc2cc(OC)ccc2OC)cc1` was 1 min; that for `COc1cc(-c2nc(Nc3ccc(F)c(F)c3)c3ccccc3n2)c(F)cn1` was over 30 min; that for `O=[S+]([O-])(Nc1nccs1)c1ccc(NCc2cc(Cl)cc(Br)c2O)cc1` was 12 min.
Regarding `COC(=O)CNC(=O)c1nc(-c2ccc(Cl)nc2)c2cnccn12`, the half-life was 16.4 min. This half-life and that of the compound before are within 1.5-fold of each other.
Compound `COc1ccc(NC(=O)c2[nH]c(C)cc2C)cc1S(=O)(=O)Nc1ccc(Br)cc1` registered a half-life of over 30 min.
Turning to `COc1ccc2oc(NC3=NC(c4[nH]ncc4Cl)C4=C(CCCC4=O)N3)nc2c1` (stereo not given), the half-life worked out at 14.2 min.
As for `Cc1ccc(S(=O)(=O)Nc2ccccc2C(=O)Nc2nc(-c3ccccc3)c(Br)s2)cc1`, the figure is 10 min; as for `COc1cccc(CNc2ccc(S(=O)(=O)Nc3cccc4ccccc34)cc2)c1O`, 5.8 min; as for `Cc1ccc(S(=O)(=O)Nc2ccc(C(=O)Nc3nc(-c4ccc(Cl)cc4)cs3)cc2)cc1`, 16 min.
In the case of `CC/C=C\C/C=C\C/C=C\C/C=C\C/C=C\C/C=C\CCC(=O)NCCO`, the half-life was 4.94 min. This half-life lies about 3.2-fold lower than the previous one.
For the compound `NC(=O)C1CCN(c2nc(-c3ccc(F)cc3)cs2)CC1`, the half-life came out at 7.09 min.
The value for `Cc1noc(C)c1S(=O)(=O)Nc1cnccc1C(=O)Nc1nc(-c2ccccc2)cs1` was over 30 min; that for `Cc1cc(C)c(C(=O)Nc2cccc([S+](=O)([O-])N3CCCCCC3)c2)[nH]1` was 1.7 min.
The value for `COc1cccc(C(=O)Nc2ccc([S+](=O)([O-])Nc3nccs3)cc2)c1O` was over 30 min; that for `c1ccc(-c2nnc3n2NC(c2ccc4c(c2)OCO4)S3)cc1` (stereo not given) was over 30 min; that for `Cc1cc(SCc2sc(-c3ccc(C(F)(F)F)c(F)c3)nc2C)ccc1OCC(=O)O` was 21 min.
